From the NIST ThermoML archive (doi:10.1016/j.jct.2016.06.016)

Assay: xn = mol fraction of the nth substance listed
Conditions: 100 kPa, Liquid; for viscosity: Concentric cylinders viscometry; for mass density: Vibrating tube method

CCOC(=O)CCC(=O)OCC [diethyl butanedioate] + CCCO
Conditions	mass density [kg/m3]	viscosity [mPa·s]
288.15 K, x1 = 0.1	854.4	2.13
288.15 K, x1 = 0.2	891.88	2.009
288.15 K, x1 = 0.2999	922.67	2.025
288.15 K, x1 = 0.3998	948.47	2.105
288.15 K, x1 = 0.4999	970.46	2.214
288.15 K, x1 = 0.6001	989.43	2.341
288.15 K, x1 = 0.7001	1005.92	2.496
288.15 K, x1 = 0.8002	1020.45	2.69
288.15 K, x1 = 0.8997	1033.27	2.926
288.15 K, x1 = 1	1044.83	3.195
293.15 K, x1 = 0.1	850.08	1.889
293.15 K, x1 = 0.2	887.33	1.788
293.15 K, x1 = 0.2999	917.95	1.804
293.15 K, x1 = 0.3998	943.61	1.875
293.15 K, x1 = 0.4999	965.5	1.971
293.15 K, x1 = 0.6001	984.4	2.082
293.15 K, x1 = 0.7001	1000.83	2.215
293.15 K, x1 = 0.8002	1015.31	2.379
293.15 K, x1 = 0.8997	1028.1	2.578
293.15 K, x1 = 1	1039.63	2.807
298.15 K, x1 = 0.1	845.75	1.69
298.15 K, x1 = 0.2	882.77	1.608
298.15 K, x1 = 0.2999	913.21	1.622
298.15 K, x1 = 0.3998	938.75	1.684
298.15 K, x1 = 0.4999	960.54	1.767
298.15 K, x1 = 0.6001	979.36	1.866
298.15 K, x1 = 0.7001	995.74	1.983
298.15 K, x1 = 0.8002	1010.18	2.126
298.15 K, x1 = 0.8997	1022.93	2.297
298.15 K, x1 = 1	1034.44	2.491
303.15 K, x1 = 0.1	841.4	1.519
303.15 K, x1 = 0.2	878.18	1.452
303.15 K, x1 = 0.2999	908.46	1.465
303.15 K, x1 = 0.3998	933.87	1.518
303.15 K, x1 = 0.4999	955.57	1.593
303.15 K, x1 = 0.6001	974.32	1.682
303.15 K, x1 = 0.7001	990.64	1.787
303.15 K, x1 = 0.8002	1005.04	1.912
303.15 K, x1 = 0.8997	1017.76	2.061
303.15 K, x1 = 1	1029.25	2.229
308.15 K, x1 = 0.1	837.02	1.371
308.15 K, x1 = 0.2	873.57	1.316
308.15 K, x1 = 0.2999	903.69	1.328
308.15 K, x1 = 0.3998	928.98	1.376
308.15 K, x1 = 0.4999	950.59	1.444
308.15 K, x1 = 0.6001	969.27	1.524
308.15 K, x1 = 0.7001	985.54	1.619
308.15 K, x1 = 0.8002	999.9	1.731
308.15 K, x1 = 0.8997	1012.6	1.861
308.15 K, x1 = 1	1024.08	2.008
313.15 K, x1 = 0.1	832.6	1.248
313.15 K, x1 = 0.2	868.94	1.209
313.15 K, x1 = 0.2999	898.89	1.222
313.15 K, x1 = 0.3998	924.07	1.265
313.15 K, x1 = 0.4999	945.59	1.325
313.15 K, x1 = 0.6001	964.21	1.398
313.15 K, x1 = 0.7001	980.44	1.484
313.15 K, x1 = 0.8002	994.77	1.586
313.15 K, x1 = 0.8997	1007.44	1.7
313.15 K, x1 = 1	1018.9	1.821
318.15 K, x1 = 0.1	828.14	1.128
318.15 K, x1 = 0.2	864.27	1.096
318.15 K, x1 = 0.2999	894.07	1.11
318.15 K, x1 = 0.3998	919.14	1.15
318.15 K, x1 = 0.4999	940.58	1.206
318.15 K, x1 = 0.6001	959.14	1.274
318.15 K, x1 = 0.7001	975.33	1.352
318.15 K, x1 = 0.8002	989.62	1.443
318.15 K, x1 = 0.8997	1002.28	1.545
318.15 K, x1 = 1	1013.72	1.66
323.15 K, x1 = 0.1	823.65	1.029
323.15 K, x1 = 0.2	859.57	1.006
323.15 K, x1 = 0.2999	889.22	1.025
323.15 K, x1 = 0.3998	914.18	1.065
323.15 K, x1 = 0.4999	935.55	1.118
323.15 K, x1 = 0.6001	954.05	1.18
323.15 K, x1 = 0.7001	970.21	1.251
323.15 K, x1 = 0.8002	984.48	1.334
323.15 K, x1 = 0.8997	997.12	1.425
323.15 K, x1 = 1	1008.55	1.523
